Data taken from patent publication US11053314B2, “Methods to eliminate cancer stem cells by targeting CD47” (The U.S.A, as represented by the Secretary, Department of …, priority 2014, dated 2021).
Entries after “also recorded” stand apart in the source; their conditions may differ.

Columns and labels:
[1] = test system: E-cadherin; experiment: E-cadherin mRNA expression (FIG. 23); assay type: cell-based
From the text: FIG. 23 is a bar graph showing that 7N3 peptide increase mRNA expression of E-cadherin.

[2] = test system: bCSCs derived from MDA-MB-231; experiment: BrdU cell proliferation assay, bCSCs from MDA-MB-231; assay type: cell-based, human; details: bCSC from MDA-MB-231
Method: To assess the effect of B6H12 on CSC proliferation, bCSC from MDA-MB-231 cells were treated with B6H12 or an isotype-matched control antibody, and proliferation was assessed by bromodeoxyuridine (BrdU) incorporation (FIG. 20A). […] We addressed this question by using a CRISPR vector (based on pX330-U6-Chimeric_BB-CBh-hSpCas9; Cong et al., Science. 339(6121):819-23, 2013, PMID: 23287718; sequence and other information available online at addgene.org/42230/) designed to specifically disrupt the CD47 gene in MDA-MB-231 cells (FIGS. 22A and 22B), using the following gRNA targeting sequence: 5′ CTACTGAAGTATACGTAAG ngg 3′ (PC200.Hcd47.g3a; SEQ ID NO: 2). PC200.Hcd47.g3a was transfected into bCSCs derived from MDA-MB-231 using a NUCLEOFECTOR™ kit (Lonza, Switzerland). CD47 negative cells were sorted using FACS analysis. CD47^neg bCSCs cells were expanded in culture and cell proliferation was measured using BrdU cell proliferation kit (EMD Millipore).
Approximately 8,000 cells were plated per well on 96-well plates and incubated overnight at 37° C. The cells were treated with B6H12 or isotype control antibody (1 μg/ml) for 24 h. BrdU was added for 4 or 24 h as indicated in the figures, and BrdU incorporation was quantified using a BrdU Cell Proliferation Kit according to the manufacturer's instructions (EMD Millipore). […]

[3] = test system: EGFR; experiment: EGFR phosphorylation, IP-western blot in MDA-MB-231 cells and bCSCs; assay type: cell-based, human; details: MDA-MB-231 cells; B6H12 15 min, EGF 5 min
Method: bCSC-depleted MDA-MB-231 cells and bCSCs were plated at 1×10^6 cells in 6-well plates. The cells were serum-starved for 2 hours using serum-free RPMI medium. The cells were pre-treated with B6H12 (1 μg/ml) for 20 min. Cell lysates were made using immunoprecipitation buffer (50 mM Tris-HCl, 150 mM NaCl, and 1% Nonidet P-40) along with 1× Complete Mini-protease inhibitor mixture (Roche Applied Science). Cell lysates were centrifuged at 13,000 rpm for 15 min. A BCA assay (Thermo scientific) was used to quantify total protein. DYNABEADS® magnetic separation beads (Invitrogen) were used for Immunoprecipitation. The DYNABEADS® magnetic separation beads were washed three times with activation buffer. The cell lysates were incubated in DYNABEADS®-protein G along with anti-EGFR and CD47 antibodies (1:500) and incubated for 24 hours at 4° C. on a shaker. The beads were washed three times with lysate buffer and heated at 95° C. for 5 min. The immunoprecipitated cell lysates were loaded on 4-12% NuPAGE gels (Life Technologies), and Western blotting was performed. For immunoprecipitation, primary antibody against phospho-EGFR (1:1000) was used. Normalization of protein lysates used for Western blotting was performed by reprobing with anti-β-actin (1:3000) or tubulin or EGFR antibodies.
MDA-MB-231 cells were pretreated with B6H12 (1 μg/ml) for 15 min. […]

[4] = test system: miR let7-family from cellular RNA of MDA-MB-231; experiment: Real time PCR of let-7 family miRNAs (Ct values, Table 4); assay type: cell-based, human
Method: (FIG. 28C & FIG. 28D) The differentiated and bCSCs cells were treated with B6H12 Ab for 24 h. The total miRNA was extracted and let-7 family miRNAs were analyzed using real time PCR. Relative expression of let-7a-2miRNA in differentiated and bCSCs cells was determined using U6 as control. (FIG. 28E) EGFR mRNA expression on EVs derived from MDA-MB-231, bCSCs, T47D1 and MCF7 cells. The cells were treated with control or B6H12 antibody for 6 h using AB serum media. (FIG. 28F) Protein expression of EGFR in the presence or absence of B6H12 for 24 h using FACS sorted CD44^+/CD24-bCSCs from MDA-MB-231, T47D1 and MCF7 cell lines. FIG. 28G) Relative expression of let-7a-2miRNA from EVs. FIG. 28H) Amplification and expression of let-7a-3 miRNA from EV […].
CSC-depleted MDA-MB-231 and bCSCs were plated at 1×10^6 cells in 6-well plates and were-treated with B6H12 or Isotype control antibody (1 μg/ml) for 36 h. Total RNA was extracted using TriPure (Roche). One μg of total RNA was used for first strand cDNA synthesis using a Maxima kit (2-Step RT PCR, Thermo Scientific) according to the manufacturer's instructions. Real time PCR was performed using SYBR Green (Roche) on an MJ Research Opticon I instrument (Bio-Rad) with the amplification program as described in (Kaur et al., Matrix Biol, 37:49-59, 2014). β2-microglobulin (B2M), HPRT1 or 18S rRNA primers were used as control to normalize mRNA expression (Table 2).

[5] = test system: MDA-MB-231 and bCSCs; experiment: Mitochondrial energetics, extracellular flux (Seahorse Analyzer); assay type: cell-based, human; details: 1 μg/ml
Method: The control MDA-MB-231 and bCSCs were plated using XF24 well plates for 1-4 days. Mitochondrial energetics was measured using extracellular flux assay kits. FIG. 12A) B6H12 (1 μg/ml) alters mitochondrial energetics in bCSCs but not in control MDA-MB-231 cells. FIGS. 12B & 12C) Long term treatment of bCSC with B6H12 (1 μg/ml) leads to decrease in basal oxygen consumption rate (OCR) due to decreased ATP associated OCR and decreases reserve mitochondrial metabolic capacity. […] The cells were immunostained using BrdU antibody and mounted with Vectashield DAPI. The confocal images were taken using a Zeiss 710 microscope at 63×. FIGS. 12E & 12F) Control MDA-MB-231 cells and bCSCs were treated with control or B6H12 Ab at 0.1, 1, 2 and 5 […] for 72 h. The cell proliferation was measured using CellTiter 96® Aqueous Non-Radioactive Cell Proliferation Assay (MTS) according to manufacturers' instructions.
B6H12 increased the basal oxygen consumption rate (OCR) at day 1 and day 3 but this was lost at day 4, when both the basal and spare metabolic capacity were decreased. The CD47 ligand TSP1 had less effect than the CD47 antibody. B6H12 decreased asymmetric division and proliferation measured by the MTS assay (FIGS. 12D-12F).

[6] = test system: several breast cancer cell lines; details: ligation of CD47; cited from earlier work

Question: Which “mRNA expression of E-cadherin” value [1] does the source give for FIRVVMYEGKK [7N3] here?
Answer: increase

Question: Which “DNA synthesis (BrdU incorporation)” value [2] does the source give for “PC200.Hcd47.g3a: gRNA targeting sequence CTACTGAAGTATACGTAAG ngg (SEQ ID NO: 2) in CRISPR vector disrupting the CD47 gene (guide CTACTGAAGTATACGTAAGNGG)” here?
Answer: diminished

Question: Which results are given for epidermal growth factor [EGF]?
Answer: EGFR phosphorylation at Y1068 [3]: significantly increased; Ct value of miR let7-family 7a-2 [4]: 26.09 ± 0.50; Ct value of miR let7-family 7a-3 [4]: 28.88 ± 0.71; Ct value of miR let7-family 7f-2 [4]: 33.24 ± 0.05; Ct value of miR let7-family 7d [4]: 27.38 ± 0.18; Ct value 18S RNA ([4]; reference RNA): 17.65 ± 0.35

Question: Which mitochondrial energetics [5] does the source give for thrombospondin-1 [TSP1] here?
Answer: modestly changes; also recorded: less effect

Question: What about the programmed cell death [6] of the same substance?
Answer: induce programmed cell death
